Results taken from patent publication US20250051301A1, “MUTANT IDH1 AND IDH2 INHIBITOR AND APPLICATION THEREOF” (Betta Pharmaceuticals Co., Ltd, priority 2022, published 2025).
≈ marks a conversion by molar mass, not a printed value.

Experiments:
mutant IDH1 = settings: AML or MDS patients carrying IDH1 gene mutations, Phase I; cited from earlier work
IDH1^R132H [1] = target: T1, IDH1^R132H (Homo sapiens, UniProt O75874, R132H); assay: Enzyme activity inhibition assay (fluorescence-based), IDH1 R132H; format: biochemical
Description: (§1) The inhibitory ability of the compounds on the enzyme activities of IDH1^R132H and IDH2^R140Qwas detected and expressed as the half inhibitory concentration (IC50) value. AG-881 was used as a positive control compound. In this experiment, compounds were screened on enzymes IDH1^R132H and IDH2^R140Q using a fluorescence-based method (initial concentration: 10000 nM, 3-fold dilution, 10 concentrations, and single-well detection). • (1) Preparation of 1×assay buffer. • (2) Preparation of compound concentration gradient: the compounds to be tested were assayed at an initial concentration of 10000 nM, with 3-fold dilution and 10 concentrations, and diluted into 200-fold the final concentration in 100% DMSO solution in a 384-well plate. • (3) 250 nL of DMSO and 250 nL of diluted compounds were transferred to a reaction plate with Echo 550. • (4) IDH2^R140Q enzyme detection: 25 μL of an IDH2^R140Q enzyme solution was added, and the mixture was incubated for 60 minutes; then 25 μL of a substrate solution was added, and the mixture was incubated for 150 minutes; then 25 μL of a detection buffer was added, and the mixture was shaken for 1 minute and incubated for 60 minutes; and finally, Synergy 2, Ex544/Em590 cutoff 590 was used for reading. • (5) IDH1^R132H enzyme detection: 40 μL of a mixture solution of an IDH1^R132H enzyme at the 1.25-fold final concentration and NADPH was added, and the mixture was incubated for 60 minutes; then 10 μL of a substrate solution at the 5-fold final concentration was added, and the mixture was incubated for 90 minutes; then 25 μL of a detection buffer at the 3-fold final concentration was added, and the mixture was shaken for 1 minute. and finally, Synergy 2, Ex544/Em590 cutoff 590 was used for reading. • (8) Inhibition rate calculation, formula: % Inhibition=(RFU_sample−RFU_min)/(RFU_max−RFU_min)*100%, wherein RFU-sample represents the fluorescence intensity of a sample; RFU-min represents the average value of negative control wells and represents the fluorescence intensity with an enzyme; and RFU-max represents the average value of positive control wells and represents the fluorescence intensity without an enzyme. The curve fitting was performed using Graphpad Prism software to obtain IC50 values, and the test results were as shown in table 2.

IDH1^R132H [2] = target: T1, IDH1^R132H; assay: 2-HG assay in cells (U87 cell line stably transfected with IDH1-R132H); format: cell-based; settings: 72 hours, read-out: 2-HG in medium (IC50, nM) (IDH1^R132H)
Description: The compounds were detected for the inhibition of 2-HG production in the U87 cell line stably transfected with IDH1-R132H and the culture supernatant of TF-1 cells stably transfected with IDH2-R140Q. • (1) The cultured cells were collected by centrifugation, then suspended in a cell culture solution, counted, and seeded in a 96-well cell culture plate at 160 μL of cell suspension/well (20000 cells/well for U87-IDH1-R132H; 10000 cells/well for TF-1-IDH2-R140Q). • (2) A 96-well plate dilution was taken, and the compounds to be tested were diluted in a gradient manner in DMSO and a cell culture solution; and then 40 μL of the gradient-diluted compounds to be tested were added to the 96-well plate on which cells have been plated. […] Finally, the plate was cultured in a 37° C. incubator containing 5% CO2. • (3) After the compounds were incubated with the cells for 72 hours, the cell culture plate was taken out and centrifuged at 1500 rpm for 5 minutes, and then 100 μL of the medium supernatant was aspirated for 2-HG detection. • (4) 2-HG detection: the cell supernatant was diluted with purified water, 30 μL of the diluted sample was taken into a 1.5 ml centrifuge tube, and 200 μL of the internal standard solution was added. The mixture was mixed uniformly by vortex and centrifuged at 3200 rpm at 4° C. for 15 minutes. 100 μL of the supernatant solution was diluted with water at a 1:1 ratio and then detected by LC-MS. Analyte Peak Area was used to represent the 2-HG levels. • (5) Inhibition rate calculation, formula: % Inhibition=(1−Analyte Peak Area_sample/Analyte Peak Area_max)*100%, wherein Analyte Peak Area_sample represents the Analyte Peak Area of the sample to which the compound was added; Analyte Peak Area_max represents the average value of Analyte Peak Area of positive control wells (representing the absence of the compound). The curve fitting was performed using Graphpad Prism software to obtain IC50 values, and the test results were as shown in table 2.

IDH2^R140Q = target: T2, IDH2^R140Q (Homo sapiens, UniProt P48735, R140Q); assay: Enzyme activity inhibition assay (fluorescence-based), IDH2 R140Q; format: biochemical
T2 sequence (P48735 40-452 R140Q): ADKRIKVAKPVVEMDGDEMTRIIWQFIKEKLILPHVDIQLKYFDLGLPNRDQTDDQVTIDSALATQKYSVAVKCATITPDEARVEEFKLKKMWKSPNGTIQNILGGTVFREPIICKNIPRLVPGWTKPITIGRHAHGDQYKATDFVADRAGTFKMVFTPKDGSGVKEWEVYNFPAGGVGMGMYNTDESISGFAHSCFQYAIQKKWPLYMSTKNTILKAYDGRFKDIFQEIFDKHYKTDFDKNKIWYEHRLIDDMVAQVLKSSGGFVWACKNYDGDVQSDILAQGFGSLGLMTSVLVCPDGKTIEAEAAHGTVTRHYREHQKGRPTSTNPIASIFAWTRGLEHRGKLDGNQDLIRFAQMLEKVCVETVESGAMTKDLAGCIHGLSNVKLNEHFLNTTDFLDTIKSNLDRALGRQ
Description: as §1

[3] = Kinetic solubility experiment; format: physicochemical; settings: buffer, kinetic from dmso stock
Description: 1. Preparation of Solutions/Buffers at Different pH Values
• Solution A: 17.42 g of K2HPO4 was weighed and dissolved in 1 L of ultrapure water. • Solution B: 13.65 g of KH2PO4 was weighed and dissolved in 1 L of ultrapure water.
A certain mass of substance to be tested was accurately weighed and dissolved in a certain volume of DMSO to obtain a 20 mM or 10 mM stock solution.
An acetonitrile stopping solution containing 1 ng/mL of labetalol and glibenclamide was prepared.
3. Incubation System (n=3)
The above-mentioned solutions were placed in a 96-well plate, respectively and shaken in a thermostatic oscillator for 2 hours (37° C., 150 rpm).
4. Control solution: 200 μM control solution of the substance to be tested was prepared in methanol. 5. Sample treatment
At a predetermined time, the 96-well plate was placed in a centrifuge and centrifuged at 4100 rpm for 15 minutes. A certain volume of the supernatant and a certain volume of control solution were respectively taken into 19 times volume of water containing 70% acetonitrile that has been previously added. The mixture was uniformly mixed, diluted 20 times with an internal standard stop solution and shaken in a thermostatic oscillator at 700 rpm at room temperature for 5 min. Further dilution may be necessary depending on the sensitivity of the compound, and sample analysis was performed by LC-MS/MS.
The ratio of compound peak area to internal standard peak area was used for calculation. According to the concentration relationship between the compound in the buffer and the control solution, the calculated concentration was the kinetic solubility, and the calculation formula was as follows:
Solubility(μg/mL)=mass spectral peak area of the compound to be tested in buffers at different pHs×200μM×molecular weight of the compound to be tested(MW)/mass spectral peak area of the compound to be tested in methanol/1000;

[4] = Pharmacokinetic detection in dogs; format: in vivo; settings: beagle dogs
Description: Adult beagle dogs (6-12 months of age) received a single dose of the compounds to be tested via intravenous administration (IV) or oral gavage administration (PO), respectively. In the IV single dose, 5% DMSO+5% Solutol+90% physiological saline was used as the excipient; the intravenous administration was carried out at a dose of 1 mg/kg (2 females and 2 males); and the venous blood collection time was 5 min, 15 min, 0.5 h, 1 h, 2 h, 4 h, 6 h, 8 h, 10 h and 24 h. In the PO single dose, 5% DMSO+5% Solutol+90% purified water was used as the excipient; the oral gavage administration was carried out at a dose of 5 mg/kg (2 females and 2 males); and the blood collection time was 15 min, 0.5 h, 1 h, 2 h, 4 h, 6 h, 8 h, 10 h and 24 h. Blood samples were collected in tubes containing EDTA anticoagulants and centrifuged at 4000 rpm at 4° C. for 10 min, and the supernatants were transferred to centrifuge tubes and stored at −20° C. For the detection, 30 μL of the plasma supernatant sample was taken, and 200 μL of an internal standard solution was added. The mixture was centrifuged at 3000 rpm for 10 minutes. Then, 100 μL of the supernatant solution was diluted with water at a 1:1 ratio and then injected with an injection volume of 5 μL. The concentration of the compounds to be tested in the plasma sample was analyzed by liquid chromatography-tandem mass spectrometry (LC-MS/MS). Plasma concentration-time data for individual animals were analyzed using Sciex Analyst software. The non-compartment model was introduced into the concentration analysis, and pharmacokinetic parameters (Cl_obs, Cmax and AUClast) of the compounds to be tested were calculated using WinNonlin (version 4.1; pHarsight) software.

[5] = both sexes, dog, plasma, PO, 5 mg/kg

T1 sequence (O75874 whole entry R132H): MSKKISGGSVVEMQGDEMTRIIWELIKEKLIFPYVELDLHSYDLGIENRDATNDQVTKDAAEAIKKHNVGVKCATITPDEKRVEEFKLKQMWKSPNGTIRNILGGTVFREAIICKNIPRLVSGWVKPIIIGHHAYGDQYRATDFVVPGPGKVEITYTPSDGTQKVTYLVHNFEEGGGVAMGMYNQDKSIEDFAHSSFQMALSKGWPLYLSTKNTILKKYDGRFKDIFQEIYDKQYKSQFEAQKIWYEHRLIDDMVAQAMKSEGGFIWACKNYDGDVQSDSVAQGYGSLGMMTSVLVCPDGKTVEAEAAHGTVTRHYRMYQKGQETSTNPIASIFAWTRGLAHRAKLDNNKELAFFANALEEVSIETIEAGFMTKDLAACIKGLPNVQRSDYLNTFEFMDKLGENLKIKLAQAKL

| Structure (SMILES) | IC50 (IDH1^R132H [1]; class symbols) [nM] | IC50 (IDH1^R132H [2]; class symbols) [nM] | IC50 (IDH2^R140Q; class symbols) [nM] | other results |
| --- | --- | --- | --- | --- |
| N#Cc1ccnc(N2C(=O)CC[C@H]2C(=O)N(c2cncc(F)c2)[C@H](C(=O)NC2CC(F)(F)C2)c2ccccc2Cl)c1 [AG-120] | – | – | – | patients in whom a decrease in α-hydroxyglutaric acid (2-HG) levels was observed (mutant IDH1): 98% |
| C[C@@H](Nc1nc(N[C@H](C)C(F)(F)F)nc(-c2cc(Cl)c(N)c(Cl)n2)n1)C(F)(F)F [Example 1] | – | – | – | IC50 (IDH1^R132H [1]; numeric values): 143 nM; IC50 (IDH1^R132H [2]; numeric values): 26 nM; IC50 (IDH2^R140Q; numeric values): 128 nM |
| Cc1cc(-c2nc(N[C@H](C)C(F)(F)F)nc(N[C@H](C)C(F)(F)F)n2)nc(Cl)c1N [Example 7, 6-(5-amino-6-chloro-4-methylpyridin-2-yl)-N^2,N^4-bis((R)-1,1,1-trifluoropropyl-2-yl)-1,3,5-triazine-2,4-diamine] | > 1000 | 50 to 100 | 100 to 1000 | – |
| C[C@@H](Nc1nc(N[C@H](C)C(F)(F)F)nc(-c2cc(C(F)F)c(N)c(Cl)n2)n1)C(F)(F)F [Example 8, 6-(5-amino-6-chloro-4-(difluoromethyl)pyridin-2-yl)-N^2,N^4-bis((R)-1,1,1-trifluoroprop-2-yl)-1,3,5-triazine-2,4-diamine] | > 1000 | 100 to 1000 | 100 to 1000 | – |
| C[C@@H](Nc1nc(N[C@H](C)C(F)(F)F)nc(-c2cc(F)c(Br)c(Cl)n2)n1)C(F)(F)F [Example 18, 6-(5-bromo-6-chloro-4-fluoropyridin-2-yl)-N^2,N^4-bis((R)-1,1,1-trifluoroprop-2-yl)-1,3,5-triazine-2,4-diamine] | 50 to 100 | > 1000 | 50 to 100 | – |
| C[C@@H](Nc1nc(N[C@H](C)C(F)(F)F)nc(-c2cc(Cl)c(O)c(Cl)n2)n1)C(F)(F)F [Example 19, 6-(4,6-dichloro-5hydroxylpyridin-2-yl)-N^2,N^4-bis((R)-1,1,1-trifluoroprop-2-yl)-1,3,5-triazine-2,4-diamine] | 50 to 100 | > 1000 | 50 to 100 | – |
| C[C@@H](Nc1nc(N[C@H](C)C(F)(F)F)nc(-c2cc(F)c(N)c(F)n2)n1)C(F)(F)F [Example 23, 6-(5-amino-4,6-difluoropyridin-2-yl)-N^2,N^4-bis((R)-1,1,1-trifluoroprop-2-yl)-1,3,5-triazine-2,4-diamine] | 100 to 1000 | ≤ 50 | 100 to 1000 | – |
| C[C@@H](Nc1nc(N[C@H](C)C(F)(F)F)nc(-c2cccc(Cl)n2)n1)C(F)(F)F [compound 1, reference compound] | – | – | – | solubility at 2 h ([3]; aqueous buffer, pH = 3.0, 37° C.): 1.6 µg/mL (≈ 3.86 µM); solubility at 2 h ([3]; aqueous buffer, pH = 5.0, 37° C.): 1.4 µg/mL (≈ 3.38 µM); solubility at 2 h ([3]; aqueous buffer, pH = 7.4, 37° C.): 0.8 µg/mL (≈ 1.93 µM); solubility at 2 h ([3]; simulated gastric fluid, pH = 1.0, 37° C.): 39.6 µg/mL (≈ 95.5 µM); Cl_obs ([4]; IV, 1 mg/kg): 24.2 mL/min/kg; AUC(0-t) ([4]; both sexes, dog, plasma, IV, 1 mg/kg): 653 ng·h/mL; AUC(0-t) [4, 5]: 2160 ng·h/mL; Cmax [4, 5]: 658 ng/mL |
